Measurements published in US20030040510A1, “Selective estrogen receptor modulators in combination with estrogens” (Endorecherche, Inc., priority 2000, published 2003).
Marks after values point to notes of the source that are not given here.

How the values were obtained:
ovariectomized rats = assay: 5-diol alone or with Flutamide and/or EM-800 for 12 months in ovariectomized rats (bone mass, serum markers)
ZR-75-1 breast tumors = assay: Growth and response category of human ZR-75-1 breast tumors in OVX nude mice, 7 antiestrogens, 161 days (Example 8); type: in vivo; settings: 161 days; for Change of ZR-75-1 tumor size compared to the OVX control group: 200 μg daily alone
Protocol: The mice (5 per cage) were housed in vinyl cages equipped with air filter lids, which were kept in laminar airflow hoods and maintained under pathogen-limiting conditions. The photoperiod was 12 hours of light and 12 hours of darkness (lights on at 07:15). Cages, bedding and food (Agway Pro-Lab R-M-H Diet #4018) were autoclaved before use. Water was autoclaved and provided ad libitum. Bilateral ovariectomy was performed under isoflurane-induced anesthesia. […] Randomization and treatments were started one week later. […] The 17 groups included two control groups (OVX and OVX+Estrone), seven groups supplemented with an estrone implant and treated with an antiestrogen and eight other groups that received an antiestrogen alone. The estrone implants were then removed from the animals in the ovariectomized control group (OVX) and in groups that were to receive the antiestrogen alone. […] Tamoxifen was purchased from […], Israel) while toremifene citrate was purchased from Orion (Espoo, Finland). […] Animals in both control groups received 0.2 ml of the vehicle alone. The antiestrogen suspensions at the appropriate concentration were prepared each month, stored at 4° C. and used under constant agitation. Powder stock were hermetically stored at 4° C. […] Tumor response was assessed at the end of the study or at death of each animal, if it occurred during the course of the experiment. In this case, only data of mice that survived for at least half of the study (84 days) were used in the tumor response analysis.

endometrial epithelium = assay: Thickness of uterine (endometrial) epithelial cells in the mice of Example 8; type: in vivo, nude mice; settings: for Endometrial epithelium thickness: OVX + antiestrogen 200 μg daily, no estrone, 161 days
Source text: The 17 groups included two control groups (OVX and OVX+Estrone), seven groups supplemented with an estrone implant and treated with an antiestrogen and eight other groups that received an antiestrogen alone. The estrone implants were then removed from the animals in the ovariectomized control group (OVX) and in groups that were to receive the antiestrogen alone. […] Tamoxifen was purchased from […], Israel) while toremifene citrate was purchased from Orion (Espoo, Finland). […] Animals in both control groups received 0.2 ml of the vehicle alone. The antiestrogen suspensions at the appropriate concentration were prepared each month, stored at 4° C. and used under constant agitation. Powder stock were hermetically stored at 4° C. […] After 161 days of treatment, the remaining animals were anesthetized with isoflurane and killed by exsanguination. […] The uteri were prepared to evaluate endometrial thickness by image analysis performed with Image Pro-Plus (Media Cybernetics, Maryland, USA). […] Hematoxylin- and eosin-stained sections of mice uteri were analysed. […] Mean epithelial cell height was measured in all animals of each group.

[1] = test system: breast and endometrial tissues; assay: Antiestrogens tested for SERM function and estrogenic activity in breast and endometrium; settings: for Estrogenic activity in breast and endometrial tissues: physiological or pharmacological concentrations
Source text: As used herein, a selective estrogen receptor modulator (SERM) is a compound that either directly or through its active metabolite functions as an estrogen receptor antagonist (“antiestrogen”) in breast tissue, yet provides estrogenic or estrogen-like effect on bone tissue and on serum cholesterol levels (i.e. by reducing serum cholesterol). Non-steroidal compounds that function as estrogen receptor antagonists in vitro or in human or rat breast tissue (especially if the compound acts as an antiestrogen on human breast cancer cells) is likely to function as a SERM. Conversely, steroidal antiestrogens tend not to function as SERMs because they tend not to display any beneficial effect on serum cholesterol. […] These SERMs may be called “pure SERMs”. […] This second series of SERMs may be called “mixed SERMs”. The unwanted estrogenic activities of these “mixed SERMs”, may be inhibited by addition of pure “SERMs” as shown in FIGS. 6 and 7 in in vitro tests and in FIG. 9 in an in vivo test of breast cancer.

[2] = test system: ovariectomized rats supplemented with 17β-estradiol; assay: EM-652.HCl with oral 17β-estradiol for 2 weeks in OVX rats: uterus, endometrial epithelium, vagina, serum cholesterol (Example 10); type: in vivo, Sprague-Dawley rats
Protocol: Ten to twelve week-old female Sprague-Dawley rats (Crl:CD(SD)Br) (Charles River Laboratory, St-Constant, Canada) weighing 215-265 g at time of ovariectomy were used. The animals were housed individually in an environmentally-controlled room (temperature: 22±3° C.; humidity: 50±20%; 12-h light-12-h dark cycles, lights on at 07:15 h). The animals were allowed free access to tap water and a certified rodent feed (Lab Diet 5002 (pellet), Ralston Purina, St-Louis, Mo.). The experiment was conducted in an animal facility approved by the Canadian Council on Animal Care (CCAC) and the Association for Assessment and Accreditation of Laboratory Animal Care (AAALAC) in accordance with the CCAC Guide for Care and Use of Experimental Animals.
On the first day of the study, the animals of the appropriate groups were bilaterally ovariectomized (OVX) under isoflurane anesthesia. The tested compounds were then given once daily by oral gavage as a suspension in 0.4% methylcellulose (0.5 ml/rat) from day 1 to day 14 of the study. Animals of groups 1 and 2 received the vehicle alone during the same time period. On day 15 of the study, 4 animals per group were perfused with 10% buffered formalin and tissues were processed for histological examination. The other animals were killed by exsanguination at the abdominal aorta under isoflurane anesthesia. The uterus and vagina were removed, stripped of remaining fat and weighed. A specimen from each uterus was fixed in 10% buffered formalin for determination of the height of endometrial epithelial cells using a computerized-assisted program (Software Image-Pro Plus).
Total cholesterol was measured on serum samples collected from overnight fasted animals using a Boehringer Mannheim Diagnostic Hitachi 911 Analyzer (Boehringer Mannheim Diagnostic Laboratory Systems).

[3] = test system: ovariectomized female rats; assay: Prevention of bone loss, body fat, serum cholesterol and ALP, 3-month treatment of OVX rats (Example 5A, experiment 1); type: in vivo, Sprague-Dawley rats; settings: 3 months; for Serum ALP: OVX rats
Protocol: (§1) Ten to twelve week-old female Sprague-Dawley rats (Crl:CD(SD)Br) (Charles River Laboratory, St-Constant, Canada) weighing approximately 220-270 g at start of treatment were used. The animals were acclimatized to the environmental conditions (temperature: 22±3° C.; humidity: 50±20%; 12-h light-12-h dark cycles, lights on at 07:15 h) for at least 1 week before starting the experiments. The animals were housed individually and were allowed free access to tap water and a pelleted certified rodent feed (Lab Diet 5002, Ralston Purina, St-Louis, Mo.). Experiments were conducted in an animal facility approved by the Canadian Council on Animal Care (CCAC) and the Association for Assessment and Accreditation of Laboratory Animal Care (AAALAC) in accordance with the CCAC Guide for Care and Use of Experimental Animals.
On day 1 of the study, the animals of the appropriate groups were bilaterally ovariectomized (OVX) under isoflurane anesthesia. […] Treatments were initiated on day 2 of the study and were performed once daily during 3 months.
After 3 months (experiment 1) or 26 weeks (experiment 2) of treatment, individual rats under Isoflurane anesthesia had their whole body skeleton and lumbar spine scanned using dual energy x-ray absorptiometry (DEXA; QDR 4500A, Hologic, Waltham, Mass.) and a Regional High Resolution Scan software. The bone mineral density (BMD) of the lumbar spine (vertebrae L2 to L4) and the total body composition (fat percentage) were determined.
After 3 months (experiment 1) or 26 weeks (experiment 2) of treatment, blood samples were collected at the jugular vein from overnight fasted animals (under Isoflurane anesthesia). Samples were processed for serum preparation and frozen at −80° C. until assay. Serum cholesterol levels and alkaline phospatase activity (ALP) were determined using the Boehringer Mannheim Diagnostic Hitachi 911 Analyzer (Boehringer Mannheim Diagnostic Laboratory Systems).

[4] = test system: OVX rats having established osteopenia; assay: Treatment of OVX rats having established osteopenia, 26 weeks (Example 5B): BMD, total body fat; type: in vivo, Sprague-Dawley rats; settings: treatment started 10 weeks after OVX, 26 weeks daily
Protocol: as §1, with “Height” for “Ten”, “nine month-old” for “twelve week-old”, “Canada)” for “Canada) weighing approximately 220-270 g at start of treatment”, “used in this experiment.” for “used.”, “prior to” for “before starting”, “ovariectomy. Animals were bilaterally ovariectomized (OVX) under isoflurane anesthesia. Twenty animals were kept intact as control.” for “experiments.”
Treatments were initiated 10 weeks after the ovariectomy and were performed once daily during 26 weeks. Animals not receiving a test article were treated with the appropriate vehicle alone during the same period.
Prior to the OVX, prior to the first day treatment (10 weeks after OVX) and after 26 weeks of treatment, individual rats under Isoflurane anesthesia had their whole body skeleton, lumbar spine and right femur scanned using dual energy x-ray absorptiometry (DEXA; QDR 4500A, Hologic, Waltham, Mass.) and a Regional High Resolution Scan software. The bone mineral density (BMD) of the lumbar spine (vertebrae L2 to L4), femur and the total body composition (fat percentage) were determined.

[5] = test system: uterus and vagina of ovariectomized mice; assay: Uterine and vaginal weight in ovariectomized mice treated or not with estrone (9 days oral); type: in vivo, BALB/c mice
Protocol: (St-Constant, Quebec, Canada) and housed 5 per cage in a temperature (23±1° C.)—and light (12 h light/day, lights on at 7:15)—controlled environment. The mice were fed rodent chow and tap water ad libitum. […] Ten mice were kept intact as controls. […] Compounds were dissolved in ethanol (4% final concentration) and administered in 0.4% methylcellulose. Mice in the intact and OVX control groups received the vehicle alone (4% ETOH-0.4% methylcellulose) during the 9-day period. The animals were killed by exsanguination at the abdominal aorta on the 11th morning following ovariectomy.

[6] = 10 μg alone, absence of estrone, OVX mice

## C[C@]12CC[C@H]3[C@@H](CC=C4C[C@@H](O)CC[C@@]43C)[C@@H]1CC[C@@H]2O [5-diol, androst-5-ene-3β,17β-diol]
Ovariectomized rats; 5-diol
  Serum alkaline phosphatase activity: marked stimulation
  Urinary ratio of calcium to creatinine: no statistically significant inhibitory effect
Ovariectomized rats; highest dose of 5-diol
  Reduction of serum cholesterol: 23%

## CC/C(=C(/c1ccc(OCCN(C)C)cc1)c1cccc(O)c1)c1ccccc1 [Droloxifene, (E)-3-[1-[4-[2-(Dimethylamino)ethoxy]phenyl]-2-phenyl-1-butenyl]phenol]
ZR-75-1 breast tumors; 50 μg daily + estrone
  Progressing tumors: 100%
ZR-75-1 breast tumors; absence of estrone
  Change of ZR-75-1 tumor size compared to the OVX control group: did not significantly change
Endometrial epithelium
  Endometrial epithelium thickness: 18.50 ± 0.07 μm
[1]
  Function as SERM: found to function as SERMs
  Estrogenic activity in breast and endometrial tissues: have some estrogenic activities

## C[C@]12CC[C@@H]3c4ccc(O)cc4CC[C@H]3[C@@H]1CC[C@@H]2O [E2, 17β-estradiol, reference compound]
[2]; OVX + E2 2 mg/kg
  Endometrial epithelial height: 41.9±1.2 μm
  Endometrial epithelial height higher than in intact control animals: 34.7%
  Inhibition of serum cholesterol levels: 53%
  Vaginal weight: 149.9 ± 9.0 mg
[2]; OVX + E2 2 mg/kg oral daily, 2 weeks
  Uterine weight: 490 ± 26 mg
[3]
  Serum ALP: 59 ± 4 IU/L
[4]
  Femoral BMD: completely prevented the further decrease
  Lumbar spine BMD: completely prevented the further decrease
  Total body fat: prevented the 17% increase

## CC(C)C(=O)Nc1ccc([N+](=O)[O-])c(C(F)(F)F)c1 [FLU, Flutamide]
Ovariectomized rats; simultaneous FLU, vs 12.5 mg 5-diol alone
  Reversal of 5-diol-stimulated serum alkaline phosphatase activity: 57%

## CC/C(=C(\c1ccccc1)c1ccc(/C=C/C(=O)O)cc1)c1ccccc1 [GW 5638]
ZR-75-1 breast tumors; 50 μg daily + estrone
  Progressing tumors: 77%
ZR-75-1 breast tumors; absence of estrone
  Change of ZR-75-1 tumor size compared to the OVX control group: did not significantly change
Endometrial epithelium
  Endometrial epithelium thickness: 22.22^a ± 0.05 μm
[1]
  Function as SERM: found to function as SERMs
  Estrogenic activity in breast and endometrial tissues: have some estrogenic activities
[3]
  Serum ALP: 72 ± 6 IU/L
[3]; alone or in combination with E2
  OVX-induced increase on serum cholesterol levels: completely prevented

## CC/C(=C(\c1ccc(I)cc1)c1ccc(OCCN2CCCC2)cc1)c1ccccc1 [Idoxifene, (E)-1-[2-[4-[1-(4-Iodophenyl)-2-phenyl-1-butenyl]phenoxy]ethyl]pyrrolidine]
ZR-75-1 breast tumors; 50 μg daily + estrone
  Progressing tumors: 71%
ZR-75-1 breast tumors; 200 μg daily, absence of estrone
  Progressing tumors: 33%
Endometrial epithelium; 50 μg daily oral + estrone
  Inhibition of the stimulatory effect of estrone on epithelial height: 50%
[1]
  Function as SERM: found to function as SERMs
  Estrogenic activity in breast and endometrial tissues: have some estrogenic activities

## Cl.O=C(c1ccc(OCCN2CCCCC2)cc1)c1c(-c2ccc(O)cc2)sc2cc(O)ccc12 [Raloxifene, [2-(4-hydroxyphenyl)-6-hydroxybenzo[b]thien-3-yl][4-[2-(1-piperidinyl)ethoxy]phenyl]-methanone hydrochloride]
ZR-75-1 breast tumors; 50 μg daily + estrone
  Progressing tumors: 81%
ZR-75-1 breast tumors; absence of estrone
  Change of ZR-75-1 tumor size compared to the OVX control group: did not significantly change
Endometrial epithelium
  Endometrial epithelium thickness: 22.33^a ± 0.05 μm
[1]
  Function as SERM: found to function as SERMs
  Estrogenic activity in breast and endometrial tissues: have some estrogenic activities
[5]; [6]
  Stimulation of uterine weight: 85%
  Stimulation of vaginal weight: 56%
[5]; 10 μg daily oral, 9 days, OVX mice + E1
  Inhibition of estrone-stimulated vaginal weight: 24%
